Data as given in US20250170212A1, “COMPOSITIONS AND METHODS OF TREATING AMYOTROPHIC LATERAL SCLEROSIS (ALS) AND RELATED DISORDERS” (BIOINCEPT, LLC, priority 2022, published 2025).
“Also recorded” adds a separate entry of the source.

Experiments:
[1] = system: transgenic SOD1^G93A mice; assay: Survival of ALS mice (Kaplan-Meier) after mGRPs transplantation with immunomodulatory drugs; type: in vivo, mouse; details: n=6 per group, mGRPs into cisterna magna, drug groups all with mGRPs: sPIF 1 mg/kg day -1 to 14, Tac 1 mg/kg daily to day 56, CB 25 mg/kg days 0, 2, 4, 6
Excerpt: B6.Cg-Tg (SOD1^G93A) 1Gur/J (Animalab, The Jackson Laboratory, Bar Harbor, ME, USA, RRID: IMSR JAX:004435) and SCID (Animalab, Charles River Laboratory, Wilmington, MA, USA, RRID: IMSR_JAX:001303) mice were obtained from JaxMice. SOD1^G93A animals were divided randomly into 5 groups and SCID animals were used as control.
mGRP cells were received as a gift from the Department of Radiology and Radiological Science, Johns Hopkins School of Medicine (Baltimore, MD, USA). Cells were isolated as previously described from spinal cords dissected from Luc+/PLP/GFP+ mice between E12.5 and E14 stage. […] The viability of the mGRPs was assessed with trypan blue exclusion and only suspensions with over 70% of cell viability were used for transplantation. […]
All quantifications were performed including the manual cell counts in a blinded manner. The NeuN and Ibal were counted as positive cells in the ROI (see above) as previously reported. The number of cells was determined by unbiased counting of positive cells. […] Differences between groups were analyzed using a repeated measure ANOVA model with a fixed effect for the group, of the time and a random intercept for the mouse. In a second, more explorative, approach for each group the time when the physical activity was first measured below a certain threshold was determined. […]

immature brain injury = details: murine model of immature brain injury; cited from earlier work
IL-12 = assay: Serum cytokine analysis, multiplex ELISA; type: in vivo, mouse; details: serum collected weekly; compared to other groups
Protocol: (§1) Samples were collected every week, starting from day of graft transplantation (day 0), 100 μl of blood from mouse tail. Blood was stored 1 h in room temperature, and overnight in +4° C. Serum was gently aspirated, and centrifuged 10 min with 2000 RPM to separate blood morphotic bodies. Purified serum was stored in −80° C. until further analysis. Multiplex ELISA 23-cytokine kit (M60009RDPD) was obtained from Bio-Rad (Bio-Plex Pro Mouse Cytokine 23-plex Assay #M60009RDPD, Hercules, Bio-Rad, CA, USA, RRID: AB_2857368) and performed according to instructions. 50 μl of diluted in sample diluent, 1:4 serum samples and diluted at range 1:10-1:20. Measurement standards were used, diluted 9 times according to the protocol and added at template plate. Vortexed beads were added to the assay 96-well plate. Plate was again washed 3 times with wash buffer, then from template plate, 50 μl of samples, standards and blank were transferred to measurement plate with multichannel pipette. Plate was sealed with tape and incubated 30 min. After this time, plate was washed 3 times. 25 μl of detection antibody was added to the wells with multichannel pipette. Plate was sealed and incubated for 30 min. and next washed 3 times using wash buffer. […] Beads were resuspended with 125 μl of assay buffer and analysis was performed with Bio Plex 200 reader.
(§2) All quantifications were performed including the manual cell counts in a blinded manner. The NeuN and Ibal were counted as positive cells in the ROI (see above) as previously reported. The number of cells was determined by unbiased counting of positive cells. […] Differences between groups were analyzed using a repeated measure ANOVA model with a fixed effect for the group, of the time and a random intercept for the mouse. In a second, more explorative, approach for each group the time when the physical activity was first measured below a certain threshold was determined. […] The clinically relevant threshold was determined according to previous observations and defined as value 0.9 for the Wire Test. […] The statistical significance at p<0.05 was then determined.

IL-1α = assay: Serum cytokine analysis, multiplex ELISA; type: in vivo, mouse; details: serum collected weekly; compared to Injury and mGRPs groups
Protocol: as §1, §2

Question: For MVRIKPGSANKPSDD [sPIF], which “mice survival (Kaplan-Meier)” value [1] is on record?
Answer: Its value is “seemed to be superior compared to other immune modulatory drugs; also recorded: seems superior but did not reach statistical significance”.

Question: And the “neuronal loss and microglial activation” value (immature brain injury)?
Answer: The value was “mitigate neuronal loss and microglial activation”.

Question: What about the “peripheral IL-12 cytokine level” value (IL-12) of the same sequence?
Answer: The value was “plateaued at day 28”.

Question: What about the “peripheral IL-1α cytokine peak” value (IL-1α) of the same sequence?
Answer: Its value is “decreased IL-1α peak significantly”.
